Measurements: patent US10024856B2, “Identification and characterization of a peptide affinity reagent for the detection of noroviruses in clinical samples” (priority 2013, dated 2018)

Tested on: NV-VLP
Details: 0-5 μg NV-VLP adsorbed on 96-well plate; 5×10^10 pfu of phage; HRP-conjugated M13 phage antibody
Protocol: NV-VLP (5, 2.5, 1.25, 0.63 μg) or 5 μg of unrelated protein BSA was immobilized and binding of each phage, indicated on the X-axis, was detected by M13 phage antibody. OD450 signal is indicated on the Y-axis.
Enzyme-linked immunosorbent assay (ELISA)—Initial ELISA experiments were performed by directly coating 0-5 μg of NV-VLP in 96-well polystyrene plates overnight. Wells were blocked with 2% milk in PBS for 2 hours at room temperature. After washing 3 times with PBS, 1×10^11 phage in 1% milk-PBS were added and incubated at room temperature with gentle rocking for 2 hours. Plates were washed 10 times with PBS-T. HRP-conjugated M13-antibody (Pharmacia Biotech) was diluted 1:5000 in 1% milk PBS and 100 μl was added to each well and incubated at room temperature for 45 minutes. After washing with PBS-T, HRP substrate, 3,3′,5′-tetramethylbenzidine (TMB)(KPL) was added to each well. Development was allowed to proceed for 10-20 minutes and stopped with 1M H3PO4 (KPL). Optical density was measured at 450 nm on a Tecan infinite M200pro plate reader.
The binding of each phage clone to immobilized NV-VLP was tested by phage ELISA. For these experiments, 0-5 μg of NV-VLP or bovine serum albumin (BSA), as a negative control, was adsorbed onto a 96-well plate and 5×10^10 pfu of phage were added to each well and binding was detected with an HRP-conjugated M13 phage antibody (FIG. 1).

Chain of NV-VLP (Q83884 whole entry): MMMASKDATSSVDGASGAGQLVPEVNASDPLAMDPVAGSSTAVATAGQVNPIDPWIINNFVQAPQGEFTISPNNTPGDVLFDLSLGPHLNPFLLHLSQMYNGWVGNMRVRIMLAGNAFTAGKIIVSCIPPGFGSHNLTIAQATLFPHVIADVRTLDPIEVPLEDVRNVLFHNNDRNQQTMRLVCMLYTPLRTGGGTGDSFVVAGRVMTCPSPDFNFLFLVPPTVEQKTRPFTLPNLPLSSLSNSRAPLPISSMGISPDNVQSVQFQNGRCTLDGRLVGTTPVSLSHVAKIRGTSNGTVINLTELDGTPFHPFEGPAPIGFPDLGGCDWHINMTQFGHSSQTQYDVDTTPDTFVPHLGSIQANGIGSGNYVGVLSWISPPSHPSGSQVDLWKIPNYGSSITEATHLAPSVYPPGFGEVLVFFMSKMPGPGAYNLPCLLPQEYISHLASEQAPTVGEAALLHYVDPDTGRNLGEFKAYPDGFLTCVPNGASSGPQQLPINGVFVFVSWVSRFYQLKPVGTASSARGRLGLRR

## IQYRSWIPFSYP [NV-O-R5-6]
  Binding to immobilized NV-VLP (ELISA signal, OD450): weakest signals
